Results reported in PubChem BioAssay (NCI).
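A five-concentration, 48-hour dose response in 96-well plates underlies each endpoint, interpolated linearly between surrounding concentrations. The concentration for 50% growth inhibition is given as GI50. At the TGI there is no net growth.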

Tests used:
Assay in all cases: DTP human tumour cell line panel, 48 h
[1] = system: CCRF-CEM leukemia
[2] = system: UO-31 renal
[3] = system: SR leukemia
[4] = system: SK-OV-3 ovarian
[5] = system: NCI-H522 lung
[6] = system: HOP-62 NSCLC
[7] = system: SW-620 colon
[8] = system: SK-MEL-28 melanoma
[9] = system: ACHN renal
[10] = system: HS 578T breast

Row | SMILES | TGI [1] [µM] | TGI [2] [µM] | TGI [3] [µM] | TGI [4] [µM] | TGI [5] [µM] | TGI [6] [µM] | TGI [7] [µM] | TGI [8] [µM] | TGI [9] [µM] | GI50 [1] [µM] | GI50 [10] [µM] | TGI [10] [µM] | GI50 [2] [µM] | GI50 [4] [µM] | GI50 [5] [µM] | GI50 [6] [µM] | GI50 [7] [µM] | GI50 [8] [µM] | GI50 [9] [µM] | GI50 [3] [µM]
1 | C=CCCCn1ccc2ccccc21 | > 100 | > 100 | > 100 | > 100 | > 100 | > 100 | > 100 | > 100 | > 100 |  |  |  |  |  |  |  |  |  |  | 
2 | O=C(CSc1nc2ccccc2nc1-c1ccccc1)Nc1ccc(Cl)cc1 | > 100 | > 100 |  | > 100 | 74.3 | 20.4 | > 100 | > 100 | 47.1 | > 100 | 16.1 | 70 | 55.4 | 78.9 | 15.3 | 5.28 | 38.9 | 60.8 | 12.3 | 
3 | Cc1ccc(-n2c3nc(=O)n(C)c(=O)c-3nc3ccccc32)cc1 | 49.4 | > 100 |  | > 100 | 32.6 | > 100 | 19.6 |  | 49.2 |  |  |  |  |  |  |  |  |  |  | 
4 | COc1cc2c(c(OC)c1O)-c1ccc(OC)c(=O)cc1[C@@H](NC(=O)C(F)(F)F)CC2 | > 100 | > 100 |  | > 100 | 0.0665 | 2.4 | > 100 | > 100 | > 100 |  |  |  |  |  |  |  |  |  |  | 
5 | CC1CN(c2ccc(Cl)cc2)CC(C)(C)OC(=O)O1 (stereo unspecified) | > 100 | > 100 | > 100 | > 100 | > 100 | > 100 | > 100 | > 100 | > 100 |  |  |  |  |  |  |  |  |  |  | 
6 | COCc1c(CO)cnc(C)c1OC1OC(CO)C(O)C(O)C1O (stereo unspecified) |  | > 100 | > 100 | > 100 | > 100 | > 100 | > 100 | > 100 | > 100 |  |  |  |  |  |  |  |  |  |  | 
7 | CCN(CC)CC.CCOc1ccc(NC(=O)N=C=[N-])cc1.[CH-]1CCCCC1.[CH-]1CCCCC1.[CH-]1CCCCC1.[Cl-].[Sn+4] | 0.515 | 0.0928 |  | 0.118 | 0.0549 | 0.234 | 0.0326 | 0.088 | 0.116 | < 0.0162 | 0.0565 | 0.47 | 0.0452 | 0.0466 | 0.0205 | 0.122 | 0.0169 | 0.0349 | 0.0493 | 
8 | COc1ccc2c(c1O)C(=O)C(CCC(=O)O)CC2 (stereo unspecified) | > 100 |  |  | > 100 |  | > 100 | > 100 | > 100 | > 100 |  |  |  |  |  |  |  |  |  |  | 
9 | COc1cc(OC)c2ssc3c(OC)cc(OC)c4ssc1c2-c43 | > 100 |  |  | > 100 | > 100 | > 100 | > 100 | > 100 | > 100 |  |  |  |  |  |  |  |  |  |  | 
10 | COc1cc(Br)c(CC2(C#N)c3ccccc3C3C(N2C(=O)c2ccccc2)C3(Cl)Cl)cc1OC (stereo unspecified) | > 65.5 | > 65.5 | > 65.5 | > 65.5 | > 65.5 |  | > 65.5 | > 65.5 | > 65.5 |  |  |  |  |  |  |  |  |  |  | 
11 | CCOC(=O)Cc1nc2ccccc2s1 | 72.8 | 29.7 | 48.9 | > 100 | 41.1 | 52 | 34.3 | 28.2 | 32.1 |  |  |  |  |  |  |  |  |  |  | 
12 | CC(/C=C/C(=O)c1sc(-n2nc(-c3ccccc3)cc2-c2ccccc2)nc1C)=C\c1ccccc1 | > 100 | > 100 | > 100 | > 100 | > 100 | > 100 | > 100 | > 100 | > 100 |  |  |  |  |  |  | > 100 | > 100 | > 100 |  | 
13 | O=C1/C(=C\c2ccc(F)cc2)CN(C(=O)c2ccc([N+](=O)[O-])cc2)C/C1=C\c1ccc(F)cc1 | > 42.6 | 6.99 |  | 26.8 | 30.7 | 7.85 | 5.35 | 15.1 | 7.49 | 1.64 | 2.29 | 8.79 | 1.69 | 3.7 | 4.3 | 2.56 | 0.885 | 3.72 | 2.46 | 
14 | NCCCCCCCCn1c2c(c3ccccc3c1=O)C(=O)c1ccccc1-2 |  | 12.3 |  | 39.4 | 6.37 | 4.69 | 3.34 | 8.47 | 14 |  | 3.83 | 22.2 | 3.36 | 16.6 | 2.46 | 2.13 | 1.8 | 2.87 | 4.07 | 
15 | O=Nc1ccc(O)c2ccccc12 |  | 3.37 |  | 16.3 | 3.48 |  | 3.6 | 6.12 | 3.14 |  | 0.868 | 4.18 | 1.36 | 4.93 | 1.6 |  | 1.82 | 2.59 | 1.69 | 
16 | O=C(O)C1=C(C(=O)Nc2ccccc2)C2C=CC1C2 (stereo unspecified) | > 100 | > 100 | > 100 | > 100 |  | > 100 | > 100 | > 100 | > 100 |  |  |  |  |  |  |  |  |  |  | 
17 | Cc1cccc(-c2nn3c(c2-c2ccnc4ccc(C(N)=O)cc24)CCC3)n1 | > 100 | > 100 |  | > 100 | > 100 | > 100 | > 100 | > 100 | > 100 | > 100 | > 100 | > 100 | > 100 | > 100 | > 100 | > 100 | > 100 | > 100 | > 100 | 
18 | COc1cccc(Cn2c(-c3nonc3N)nc3ccccc32)c1 | > 100 | > 100 | > 100 | 25.9 | 0.688 | 48.3 | > 100 | > 91.8 | > 100 | 0.348 |  |  | 0.632 | 0.414 | 0.245 | 0.511 | 0.372 | 0.781 | 0.612 | 0.31
